Measurements taken from patent publication US20120121540A1 (priority 2007, published 2012).

Assay: HCV replicon assay (luciferase reporter, ET cell line)
Format: cell-based
Settings: Hepatitis C virus, HCV replicon luciferase activity in ET cells
Summary of the method: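 ET cells carry a stable luciferase-ubiquitin-neo/NS3-5B subgenomic HCV replicon with adaptive mutations. Compounds (0.1 nM to […], 0.5% DMSO) were added 24 h after plating, and luciferase was read 48-72 h later. EC50 came from 10-point 2-fold dilutions fitted to a Hill equation; TC50 was measured in parallel by WST-1.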

O=C(c1nc2c(C(F)(F)F)cc(-c3ccoc3)cn2c1Cl)N1CCC(c2ncon2)C1 (stereo not shown) [Compound 417, (3-Chloro-6-furan-3-yl-8-trifluoromethyl-imidazo[1,2-a]pyridine-2-yl)-(3-[1,2,4]oxadiazol-3-yl-pyrrolidin-1-yl)-methanone] showed an inhibition at 10 µM of 96.5%.

For O=C(c1nc2c(C(F)(F)F)cc(-c3ccoc3)cn2c1Cl)N1CCC(c2ccc(F)c(F)c2)C1 (stereo not shown) [Compound 420, (3-Chloro-6-furan-3-yl-8-trifluoromethyl-imidazo[1,2-a]pyridine-2-yl)-[3-(3,4-difluoro-phenyl)-pyrrolidin-1-yl]-methanone], the inhibition at 10 µM was 93.6%.

Work on O=C(c1nc2c(C(F)(F)F)cc(-c3ccoc3)cn2c1Cl)N1CC=C(c2cccs2)C1 [Compound 422, (3-Chloro-6-furan-3-yl-8-trifluoromethyl-imidazo[1,2-a]pyridin-2-yl)-(3-thiophen-2-yl-2,5-dihydro-pyrrol-1-yl)-methanone] yielded an inhibition at 10 µM of 99.8%.

Work on O=C(c1nc2c(C(F)(F)F)cc(-c3ccoc3)cn2c1Cl)N1CCC(c2cccs2)C1 (stereo not shown) [Compound 423, (3-Chloro-6-furan-3-yl-8-trifluoromethyl-imidazo[1,2-a]pyridin-2-yl)-(3-thiophen-2-yl-pyrrolidin-1-yl)-methanone] yielded an inhibition at 10 µM of 99.8%.

Work on O=C(c1nc2c(C(F)(F)F)cc(-c3ccoc3)cn2c1Cl)N1CC=C(c2ccccc2F)C1 [Compound 424, (3-Chloro-6-furan-3-yl-8-trifluoromethyl-imidazo[1,2-a]pyridin-2-yl)-[3-(2-fluoro-phenyl)-2,5-dihydro-pyrrol-1-yl]-methanone] yielded an inhibition at 10 µM of 99.7%.

Compound O=C(c1nc2c(C(F)(F)F)cc(-c3ccoc3)cn2c1Cl)N1CC=C(c2ccsc2)C1 [Compound 425, (3-Chloro-6-furan-3-yl-8-trifluoromethyl-imidazo[1,2-a]pyridin-2-yl)-(3-thiophen-3-yl-2,5-dihydro-pyrrol-1-yl)-methanone] has an inhibition at 10 µM of 99.3%.

O=C(c1nc2c(C(F)(F)F)cc(-c3ccoc3)cn2c1Cl)N1CC=C(c2cccc(F)c2)C1 [Compound 426, (3-Chloro-6-furan-3-yl-8-trifluoromethyl-imidazo[1,2-a]pyridin-2-yl)-[3-(3-fluoro-phenyl)-2,5-dihydro-pyrrol-1-yl]-methanone] showed an inhibition at 10 µM of 98.2%.

In the case of O=C(c1nc2c(C(F)(F)F)cc(-c3ccoc3)cn2c1Cl)N1CC=C(c2ccc(F)cc2)C1 [Compound 427, (3-Chloro-6-furan-3-yl-8-trifluoromethyl-imidazo[1,2-a]pyridin-2-yl)-[3-(4-fluoro-phenyl)-2,5-dihydro-pyrrol-1-yl]-methanone], the inhibition at 10 µM is reported as 99.1%.

With O=C(c1nc2c(C(F)(F)F)cc(-c3ccoc3)cn2c1Cl)N1CC=C(c2nccs2)C1 [Compound 428, (3-Chloro-6-furan-3-yl-8-trifluoromethyl-imidazo[1,2-a]pyridin-2-yl)-(3-thiazol-2-yl-2,5-dihydro-pyrrol-1-yl)-methanone] the inhibition at 10 µM was 99.9%.

Work on O=C(c1nc2c(C(F)(F)F)cc(-c3ccoc3)cn2c1Cl)N1CC=C(c2ccoc2)C1 [Compound 429, (3-Chloro-6-furan-3-yl-8-trifluoromethyl-imidazo[1,2-a]pyridin-2-yl)-(3-furan-3-yl-2,5-dihydro-pyrrol-1-yl)-methanone] yielded an inhibition at 10 µM of 98%.

O=C(c1nc2c(C(F)(F)F)cc(-c3ccoc3)cn2c1Cl)N1CCC(c2nccs2)C1 (stereo not shown) [Compound 430, (3-Chloro-6-furan-3-yl-8-trifluoromethyl-imidazo[1,2-a]pyridin-2-yl)-(3-thiazol-2-yl-pyrrolidin-1-yl)-methanone] showed an inhibition at 10 µM of 99.4%.

O=C(c1nc2c(C(F)(F)F)cc(-c3ccoc3)cn2c1Cl)N1CCC(C2CCOC2)C1 (stereo not shown) [Compound 431, (3-Chloro-6-furan-3-yl-8-trifluoromethyl-imidazo[1,2-a]pyridin-2-yl)-[3-(tetrahydro-furan-3-yl)-pyrrolidin-1-yl]-methanone] showed an inhibition at 10 µM of 95.1%.

O=C(c1nc2c(C(F)(F)F)cc(-c3cn[nH]c3)cn2c1Br)N1CCC(c2nccs2)C1 (stereo not shown) [Compound 432, [3-Bromo-6-(1H-pyrazol-4-yl)-8-trifluoromethyl-imidazo[1,2-a]pyridin-2-yl]-(3-thiazol-2-yl-pyrrolidin-1-yl)-methanone] gave an inhibition at 10 µM of 96.5%.

For O=C(c1nc2c(C(F)(F)F)cc(-c3cn[nH]c3)cn2c1Br)N1CC=C(c2nccs2)C1 [Compound 433, [3-Bromo-6-(1H-pyrazol-4-yl)-8-trifluoromethyl-imidazo[1,2-a]pyridin-2-yl]-(3-thiazol-2-yl-2,5-dihydro-pyrrol-1-yl)-methanone], the inhibition at 10 µM was 99.2%.

In the case of O=C(c1nc2c(C(F)(F)F)cc(-c3cn[nH]c3)cn2c1Br)N1CC=C(c2ccsc2)C1 [Compound 435, [3-Bromo-6-(1H-pyrazol-4-yl)-8-trifluoromethyl-imidazo[1,2-a]pyridin-2-yl]-(3-thiophen-3-yl-2,5-dihydro-pyrrol-1-yl)-methanone], the inhibition at 10 µM is reported as 98.8%.

Compound O=C(c1nc2c(C(F)(F)F)cc(-c3cn[nH]c3)cn2c1Br)N1CC=C(c2ccoc2)C1 [Compound 436, [3-Bromo-6-(1H-pyrazol-4-yl)-8-trifluoromethyl-imidazo[1,2-a]pyridin-2-yl]-(3-furan-3-yl-2,5-dihydro-pyrrol-1-yl)-methanone] has an inhibition at 10 µM of 98%.

In the case of O=C(c1nc2c(C(F)(F)F)cc(-c3cn[nH]c3)cn2c1Br)N1CC=C(c2cccc(F)c2)C1 [Compound 437, [3-Bromo-6-(1H-pyrazol-4-yl)-8-trifluoromethyl-imidazo[1,2-a]pyridin-2-yl]-[3-(3-fluoro-phenyl)-2,5-dihydro-pyrrol-1-yl]-methanone], the inhibition at 10 µM is reported as 96.9%.

For O=C(c1nc2c(C(F)(F)F)cc(-c3cn[nH]c3)cn2c1Br)N1CC=C(c2ccc(F)cc2)C1 [Compound 438, [3-Bromo-6-(1H-pyrazol-4-yl)-8-trifluoromethyl-imidazo[1,2-a]pyridin-2-yl]-[3-(4-fluoro-phenyl)-2,5-dihydro-pyrrol-1-yl]-methanone], the inhibition at 10 µM was 97.8%.

For O=C(c1nc2c(C(F)(F)F)cc(-c3cn[nH]c3)cn2c1Cl)N1CC=C(c2nccs2)C1 [Compound 439, [3-Chloro-6-(1H-pyrazol-4-yl)-8-trifluoromethyl-imidazo[1,2-a]pyridin-2-yl]-(3-thiazol-2-yl-2,5-dihydro-pyrrol-1-yl)-methanone], the inhibition at 10 µM was 99.2%.

Compound O=C(c1cn2cc(-c3cn[nH]c3)cc(C(F)(F)F)c2n1)N1CC=C(c2nccs2)C1 [Compound 440, [6-(1H-Pyrazol-4-yl)-8-trifluoromethyl-imidazo[1,2-a]pyridin-2-yl]-(3-thiazol-2-yl-2,5-dihydro-pyrrol-1-yl)-methanone] has an inhibition at 10 µM of 98.9%.

For O=C(c1nc2c(C(F)(F)F)cc(-c3cn[nH]c3)cn2c1Cl)N1CCC(c2cccs2)C1 (stereo not shown) [Compound 441, [3-Chloro-6-(1H-pyrazol-4-yl)-8-trifluoromethyl-imidazo[1,2-a]pyridin-2-yl]-(3-thiophen-2-yl-pyrrolidin-1-yl)-methanone], the inhibition at 10 µM was 97.6%.

For O=C(c1nc2c(C(F)(F)F)cc(-c3cn[nH]c3)cn2c1Br)N1CC=C(c2cccs2)C1 [Compound 442, [3-Bromo-6-(1H-pyrazol-4-yl)-8-trifluoromethyl-imidazo[1,2-a]pyridine-2-yl]-(3-thiophen-2-yl-2.5-dihydro-pyrrol-1-yl)-methanone], the inhibition at 10 µM was 99.5%.

O=C(c1nc2c(C(F)(F)F)cc(-c3cn[nH]c3)cn2c1Cl)N1CC=C(c2cccs2)C1 [Compound 443, [3-Chloro-6-(1H-pyrozol-4-yl)-8-(trifluoromethyl)imidazo[1,2-a]pyridine-2-yl][3-(thiophen-2-yl)-2,5-dihydro-1H-pyrrol-1-yl]methanone] gave an inhibition at 10 µM of 99.3%.

In the case of O=C(c1nc2c(C(F)(F)F)cc(-c3cn[nH]c3)cn2c1Cl)N1CC=C(c2ccco2)C1 [Compound 444, [3-Chloro-6-(1H-pyrazol-4-yl)-8-(trifluoromethyl)imidazo[1,2-a]pyridin-2-yl][3-(furan-2-yl)-2,5-dihydro-1H-pyrrol-1-yl]methanone], the inhibition at 10 µM is reported as 98%.

O=C(c1nc2c(C(F)(F)F)cc(-c3cn[nH]c3)cn2c1Cl)N1CC=C(c2cscn2)C1 [Compound 445, [3-Chloro-6-(1H-pyrazol-4-yl)-8-(trifluoromethyl)imidazol[1,2-a]pyridine-2-yl][3-(1,3-thiazol-4-yl)-2,5-dihydro-1H-pyrrol-1-yl]methanone] showed an inhibition at 10 µM of 93.9%.

O=C(c1nc2c(C(F)(F)F)cc(-c3ccoc3)cn2c1Br)N1CCC(c2cccc(F)c2)C1 (stereo not shown) [Compound 446, (3-Bromo-6-furan-3-yl-8-trifluoromethyl-imidazo[1,2-a]pyridin-2-yl)-(3-(3-fluoro-phenyl)-pyrrolidin-1-yl)-methanone] gave an inhibition at 10 µM of 95.8%.

For O=C(c1nc2c(C(F)(F)F)cc(-c3cn[nH]c3)cn2c1Br)N1CCC(c2cccc(F)c2)C1 (stereo not shown) [Compound 447, (3-Bromo-6-(1H-pyrazol-4-yl)-8-trifluoromethyl-imidazo[1,2-a]pyridin-2-yl)-(3-(3-fluoro-phenyl)-pyrrolidin-1-yl)-methanone], the inhibition at 10 µM was 92.8%.

Work on O=C(c1nc2c(C(F)(F)F)cc(-c3ccoc3)cn2c1Br)N1CCC(c2ccccc2F)C1 (stereo not shown) [Compound 448] yielded an inhibition at 10 µM of 99.2%.

O=C(c1nc2c(C(F)(F)F)cc(-c3cn[nH]c3)cn2c1Br)N1CCC(c2ccccc2F)C1 (stereo not shown) [Compound 449, (3-Bromo-6-(1H-pyrazol-4-yl)-8-trifluoromethyl-imidazo[1,2-a]pyridin-2-yl)-(3-(2-fluoro-phenyl)-pyrrolidin-1-yl)-methanone] showed an inhibition at 10 µM of 97.4%.

With N#Cc1cccc(C2CCN(C(=O)c3nc4c(C(F)(F)F)cc(-c5ccoc5)cn4c3Cl)C2)c1 (stereo not shown) [Compound 450, 3-(1-(3-Chloro-6-furan-3-yl-8-trifluoromethyl-imidazo[1,2-a]pyridine-2-carbonyl)-pyrrolidin-3-yl)-benzonitrile] the inhibition at 10 µM was 82.5%.

Compound COc1cccc(C2CCN(C(=O)c3nc4c(C(F)(F)F)cc(-c5ccoc5)cn4c3Cl)C2)c1 (stereo not shown) [Compound 451, (3-Chloro-6-furan-3-yl-8-trifluoromethyl-imidaz [1,2-a]pyridin-2-yl)-[3-(3-methoxy-phenyl)-pyrrolidin-1-yl]-methanone] has an inhibition at 10 µM of 73.5%.
